Assay results as given in a melting point compilation (Tetko et al.; mined from patent text by program, amines drawn as free bases though some values may be those of a salt).

First: CCCn1cc2c(C3C(=O)Nc4ccc(Br)cc43)nc(NCCCN(C)C)nc2n1 (centres undefined)
Second: Cn1cc(Br)cc(Nc2cc3c(cn2)CCN(C(=O)OC(C)(C)C)C3)c1=O
The melting point of the first is higher: 286 to 290 °C for the first, 126 to 128 °C for the second.

First: O=C(CC(CSC(=O)c1ccccc1)C(=O)O)c1ccccc1 (centres undefined)
Second: O=C(O)Cc1cn(-c2ccccc2)nc1-c1ccccc1
The melting point of the first is lower: 110 to 111 °C for the first, 120 to 121 °C for the second.

Compared with `COC(=O)CCCC(=O)c1ccco1`, `COC(=O)CCCNC(=O)C(CO)NS(=O)(=O)c1ccc(Cl)cc1` (racemic) is higher in melting point: 42.5 °C for the first, 119 to 121 °C for the second.

Compared with `CCN(CC)C(=O)c1c(I)ccc(F)c1[Si](C)(C)C`, `OCC1Cc2c(cc(Cl)c3c(-c4ccccc4F)noc23)O1` (centres undefined) is higher in melting point: 58.5 to 64 °C for the first, 110 to 111 °C for the second.

First: CC(=O)c1ccc(SCCCc2ccccc2)cc1
Second: CC(=O)c1ccc(-c2ccc(N(c3ccccc3)c3ccccc3)cc2)cc1
The melting point of the first is lower: 76 to 78 °C for the first, 97 to 98 °C for the second.

Compared with `Cn1nc(Oc2ccc(N)c(N)c2)cc1C(F)(F)F`, `COc1ccc(-c2c(C#N)nn(-c3c(Cl)cc(C(F)(F)F)cc3Cl)c2N)cc1OC` is higher in melting point: 109 to 111 °C for the first, 250 °C for the second.

Compared with `CN1CC=C(c2c[nH]c3ccc(C(=O)O)cc23)CC1`, `CCOc1ccc(S(=O)(=O)N2CCN(C)CC2)cc1C=O` is lower in melting point: 249 °C for the first, 107 to 108 °C for the second.

Compared with `CCOC(=O)C1(C(=O)N(C)c2cccc3cc(-c4nccs4)[nH]c23)CCC1`, `O=Cc1cc2c3ccccc3ccc2c2sccc12` is lower in melting point: 197 °C for the first, 162 °C for the second.

First: O=Cc1ccccc1Oc1ccc(C(F)(F)F)cc1[N+](=O)[O-]
Second: COc1ccc(C2Cc3c(cccc3C(F)(F)F)NC(=O)C2=O)cc1 (centres undefined)
The melting point of the first is lower: 79 to 81 °C for the first, 221 to 223 °C for the second.

First: COc1ccc(C(=O)CCC#N)cc1
Second: COc1ccc2c(CC#N)c[nH]c2c1
The melting point of the first is lower: 94 °C for the first, 100 °C for the second.

Compared with `CNCCc1c[nH]c2ccc(Cn3cncn3)cc12`, `COc1ccc(C(O)CNCCc2ccc(OC)c(OC)c2Cl)cc1` (centres undefined) is lower in melting point: 139 to 141 °C for the first, 117 to 120 °C for the second.

Compared with `COc1cc(CC(C)(C)NC(=O)c2ccc(=O)n(-c3ccc4cc(C)ccc4n3)c2)cc2c1OC(C)(C)C2`, `COc1ccc(-c2cc3c(OC)cc(OC)cc3nc2OCC(=O)OCc2ccccc2)cc1` is lower in melting point: 192 to 193 °C for the first, 114 to 115 °C for the second.

First: COCCOc1ccc2sc(C(=O)Nc3ccccc3N)cc2c1
Second: CCOC(=O)CCCCC(NS(=O)(=O)c1ccc(C)cc1)c1ccc2ccccc2c1 (centres undefined)
The melting point of the first is higher: 162 to 165 °C for the first, 87 to 91 °C for the second.

First: C[C@@H]1[C@@H](NC(=O)OCc2ccccc2)CN1S(=O)(=O)O
Second: CC(=O)OC1OCC[C@@H]1NC(=O)[C@H](CC(C)C)NC(=O)OCc1ccccc1 (some centres undefined)
The melting point of the first is lower: 55 to 64 °C for the first, 158 to 159 °C for the second.

Compared with `CN1N=C2C(=Cc3ccccc3)CNCC2C1c1ccccc1` (centres undefined), `CCOc1ccccc1O[C@@H]1CN(Cc2ccccc2)C[C@H]1O` (relative stereo) is lower in melting point: 115 to 117 °C for the first, 88.5 to 90 °C for the second.

First: COC(=O)[C@H](CCCC(OC)OC)N1C(=O)c2ccccc2C1=O
Second: CN(C)CCNC(=O)c1ccc(OCc2ccc(-c3ccccc3)cc2)nc1
The melting point of the first is lower: 69 to 70 °C for the first, 151 to 154 °C for the second.

Compared with `O=C(COc1cccc2ccccc12)NC(Cc1ccccc1)C(=O)CSCc1ccco1` (centres undefined), `Oc1ccc2cc(Cc3c(Cc4ccccc4)sc4ccccc34)ccc2c1Br` is higher in melting point: 104 to 106 °C for the first, 110 to 112 °C for the second.

First: CCCCCN(CCC12CC3CC(CC(C3)C1)C2)C(=O)NCc1ccccn1
Second: CCCCNS(=O)(=O)CC(O)C(O)C(CC1CCCCC1)NC(=O)C(Cc1c[nH]cn1)NS(=O)(=O)CCc1ccccc1 (centres undefined)
The melting point of the first is lower: 87.5 to 92 °C for the first, 208 to 210 °C for the second.

First: O=C1CCc2c1sc1c2CCCC1
Second: CC1CCc2c(N3CCC(Cc4ccccc4)CC3)c(F)cc3c(=O)c(C(=O)O)cn1c23 (centres undefined)
The melting point of the first is lower: 43 to 44 °C for the first, 230 to 232 °C for the second.

First: CC(CCOc1ccccc1NS(C)(=O)=O)N1CCC(OC(c2ccccc2)c2ccccc2)CC1 (centres undefined)
Second: O=C(O)COCCN1CCN(C(c2ccccc2)c2ccccc2)CC1
The melting point of the first is higher: 114 to 116 °C for the first, 100 °C for the second.

Compared with `Nc1cccc(NC(=S)Nc2ccc(Cl)cc2)c1`, `Cc1cccc(S(=O)(=O)N2CCCC2c2ccc(F)cc2)c1` (racemic) is lower in melting point: 132 to 134 °C for the first, 102 °C for the second.

First: Fc1ccc(Nc2ncnc3cnc(NC4CCNCC4)nc23)cc1Cl
Second: Clc1ccc(-c2ncn(CC3CC3)c2-c2ccncc2)cc1Cl
The melting point of the first is higher: 239 to 243 °C for the first, 146 °C for the second.

First: CC1(C(=O)Nc2ccc(N3CCOC3=O)c(C(F)(F)F)c2)CC1
Second: O=c1oc2cccnc2n1CCCN1CCN(c2cccc(C(F)(F)F)c2)CC1
The melting point of the first is higher: 146 to 147 °C for the first, 62 to 63 °C for the second.

Compared with `Cc1c(O)cccc1C(=O)N[C@@H](Cc1ccccc1)[C@H](O)C(=O)N1CSC(C)(C)[C@H]1C(=O)N[C@@H]1CCc2ccccc21`, `Cc1cccc(NC(=O)NCC(=O)N(CC(=O)N(C)c2ccccc2)c2ccccc2C)c1` is higher in melting point: 128 to 130 °C for the first, 193 °C for the second.

First: O=C(CBr)OCC1OC(Sc2ccccc2)C(OCc2ccccc2)C(OCc2ccccc2)C1OCc1ccccc1 (centres undefined)
Second: O=c1[nH]c(=O)n(C2CC(OCc3ccccc3)C(COC(c3ccccc3)(c3ccccc3)c3ccccc3)O2)cc1F (centres undefined)
The melting point of the first is lower: 85 to 87 °C for the first, 138 to 139 °C for the second.

Compared with `O=C(O)CC1(O)CCC(N2CCN(CCNc3ccncc3)CC2)CC1` (centres undefined), `O=C(O)/C(=C\c1ccccc1)CC(=O)N1C[C@H]2CCCC[C@H]2C1` is lower in melting point: 238 to 240 °C for the first, 126 to 128 °C for the second.

First: Cc1oc(-c2ccccc2)nc1COc1nn(Cc2ccc(Oc3ccccc3)cc2)cc1C(N)=O
Second: O=C(O)CCOc1cccc(CNC(=O)C2Cc3ccccc3N2S(=O)(=O)c2ccc(-c3cccc(C(F)(F)F)c3)cc2)c1 (centres undefined)
The melting point of the first is higher: 158 to 159 °C for the first, 70 °C for the second.

First: COc1cccc(-c2cccc(OC3SCC(OC(C)=O)C(OC(C)=O)C3OC(C)=O)c2)n1 (centres undefined)
Second: COc1ccc(O)c(OC)c1-c1ccc(C[C@H](NC(=O)c2c(Cl)cccc2Cl)C(=O)O)cc1
The melting point of the first is higher: 195 °C for the first, 164 to 165 °C for the second.

First: CSC(=C[N+](=O)[O-])NCCSCc1csc(NC(=N)N)n1
Second: Nc1cc2c(cc1[N+](=O)[O-])CCO2
The melting point of the first is higher: 151 to 156 °C for the first, 140 to 142 °C for the second.

Compared with `CC(=O)c1coc2cc(NS(C)(=O)=O)c(Oc3ccccc3)cc2c1=O`, `COc1cc(-c2ccc(-c3ccc(N)c(OC)c3)o2)ccc1N` is higher in melting point: 175 to 177 °C for the first, 188 to 190 °C for the second.

First: N#Cc1ccc(-c2cc(N(Cc3ccc(O)cc3)n3cnnc3)ccc2C#N)cc1
Second: O=C(N(CCCc1ccncc1)Cc1ccccc1)N(CCCc1ccccc1)C1CCCCC1
The melting point of the first is higher: 221 to 223 °C for the first, 107 to 112 °C for the second.

First: O=C(O)c1cnc(NC(=O)C(CC2CCCC2)c2ccc(Cl)c(Cl)c2)s1 (centres undefined)
Second: CCCC(=O)C(=O)[C@H](CC1CCCCC1)NC(=O)[C@H](Cc1cn(S(=O)(=O)c2ccc(C)cc2)cn1)NC(=O)OC(C)(OC)OC
The melting point of the first is higher: 269 to 270 °C for the first, 60 to 67 °C for the second.

Compared with `COC(=O)N[C@H](C(=O)O)C(C)(C)C`, `COC(=O)CNC(=O)CC(=O)CBr` is lower in melting point: 106 to 108 °C for the first, 76 to 77 °C for the second.

`C#CC1(O)CCC2C3CCC4=CC(=O)CCC4C3C(=CF)CC21CC` (centres undefined) and `Cc1c(OCC(C)(C)CS(N)(=O)=O)nn2ncnc2c1C` cannot be ordered by melting point: 169 to 180 °C for the first, 175 to 177 °C for the second.

Compound `COC(c1ccccc1)C(C)([N+](=O)[O-])[N+](=O)[O-]` (centres undefined) has a melting point of 53 to 55 °C.
